17 molecules from patent US9670250B2, “Alpha-helical peptidomimetic inhibitors and methods using same” (The Trustees of the University of Pennsylvania, priority 2012, dated 2017) can be followed below.

Holding throughout (type): biochemical
Assay [1] deals with Cathepsin L (Homo sapiens, UniProt P07711). Kind of assay: in vitro fluorescence-based protease inhibition assay, cathepsin L. Conditions: for Ki: Table 4, calpain inhibitors. An excerpt:
(§1) Thus, the present invention includes a series of potent and highly specific α-helical inhibitors for papain family cysteine proteases. […] These short α-helical peptidomimetic inhibitors are modeled after the natural pro-domain sequence but contain a cysteine substitution at specific residues in i,i+4 positions, as shown in FIG. 2B. These cysteine residues are used for stabilization of the helix utilizing an appropriate linker (Muppidi, et al., 2011, Chem Commun (Camb) 47:9396-9398). After synthesis, each inhibitor was tested against its respective protease using an in vitro fluorescence-based assay. For each enzyme, at least one inhibitor was identified that is relatively potent and highly specific for its individual protease. These inhibitors can be modified or otherwise optimized to attain higher potency and selectivity through identification of key interactions between the inhibitor and the active site amino acid residues. Such optimization involves visual examination of the protease crystal structure, and substitution with either non-natural or natural amino acids to exploit possible crucial non-covalent protein ligand interactions, such as hydrogen bond, electrostatic, hydrophobic, and Van der Waals interactions.

Assay [2] addresses T1, Cathepsin K (Homo sapiens, UniProt P43235).
T1 sequence (P43235 115-329): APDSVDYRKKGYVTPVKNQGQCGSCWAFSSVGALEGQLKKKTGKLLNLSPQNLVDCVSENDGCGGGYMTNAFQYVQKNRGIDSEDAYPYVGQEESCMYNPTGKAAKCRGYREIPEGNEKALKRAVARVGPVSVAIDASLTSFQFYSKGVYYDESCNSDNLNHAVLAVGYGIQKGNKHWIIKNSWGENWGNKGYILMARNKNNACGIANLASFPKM
Put plainly: in vitro fluorescence-based protease inhibition assay, cathepsin K.
From the text: as §1

For assay [3], the target named is T2, Calpain (Calpain-1) (Homo sapiens, UniProt P07384).
T2 sequence (P07384 1-714): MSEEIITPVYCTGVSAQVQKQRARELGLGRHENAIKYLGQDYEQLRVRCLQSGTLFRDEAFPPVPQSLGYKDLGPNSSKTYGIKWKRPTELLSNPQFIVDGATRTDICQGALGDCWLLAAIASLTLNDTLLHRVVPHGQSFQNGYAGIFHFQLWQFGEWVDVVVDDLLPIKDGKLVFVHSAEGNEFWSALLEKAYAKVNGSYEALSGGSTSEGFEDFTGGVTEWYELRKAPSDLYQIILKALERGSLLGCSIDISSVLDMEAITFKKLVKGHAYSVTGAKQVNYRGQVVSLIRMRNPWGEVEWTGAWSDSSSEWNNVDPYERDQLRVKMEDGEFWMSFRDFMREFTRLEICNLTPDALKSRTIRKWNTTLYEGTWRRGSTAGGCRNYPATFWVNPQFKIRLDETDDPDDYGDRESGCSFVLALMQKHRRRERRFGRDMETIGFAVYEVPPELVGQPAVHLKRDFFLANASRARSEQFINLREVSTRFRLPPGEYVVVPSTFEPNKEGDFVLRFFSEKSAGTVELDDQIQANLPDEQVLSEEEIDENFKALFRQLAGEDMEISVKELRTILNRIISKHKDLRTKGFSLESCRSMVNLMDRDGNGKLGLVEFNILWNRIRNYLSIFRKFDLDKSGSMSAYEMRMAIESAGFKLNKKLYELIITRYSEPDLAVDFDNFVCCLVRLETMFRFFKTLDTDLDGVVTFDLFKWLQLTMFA
T2 sequence (P04632 1-268 partner): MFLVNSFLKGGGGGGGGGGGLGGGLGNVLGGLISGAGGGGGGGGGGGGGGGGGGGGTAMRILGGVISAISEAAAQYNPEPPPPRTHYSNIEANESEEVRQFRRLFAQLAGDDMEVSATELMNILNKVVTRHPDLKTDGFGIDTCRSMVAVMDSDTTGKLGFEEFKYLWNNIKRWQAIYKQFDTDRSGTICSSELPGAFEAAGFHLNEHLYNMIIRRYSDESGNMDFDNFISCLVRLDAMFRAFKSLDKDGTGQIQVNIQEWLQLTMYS
Put plainly: in vitro fluorescence-based protease inhibition assay, calpain.
From the text: as §1

[4] abbreviates: Table 2, cathepsin S inhibitors.

Starred links: 1 amine or outer side, 2 acyl side, 3 side chain; linkers in the order of their positions; H or OH if unused. Positions of bridges follow the written chain, without caps; N, C: chain ends. Residues, ends and D or L forms follow the SMILES beside them. mXylylene = c1cc(C[*:1])cc(C[*:2])c1

Cathepsin L, sequence (P07711 114-333, species assumed): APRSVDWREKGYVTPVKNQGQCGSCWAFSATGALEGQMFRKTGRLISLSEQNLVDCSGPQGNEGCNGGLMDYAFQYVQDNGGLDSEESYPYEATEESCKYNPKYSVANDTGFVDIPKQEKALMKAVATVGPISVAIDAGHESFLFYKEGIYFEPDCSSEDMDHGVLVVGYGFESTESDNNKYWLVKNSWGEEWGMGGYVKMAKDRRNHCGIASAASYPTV

Take “SEEFRQVMNGF [SEQ ID NO:1, reference compound]”: in assay [1], the “cathepsin L inhibitory activity, in words” value is listed as “no inhibitory activity”. With 35 (SCELVCKMTGL) [compound 35], the “Cathepsin K activity” value in assay [2] (between 200-500 nM & 50 μM) came to 80% activity. `CC[C@H](C)[C@H](N)C(=O)N1CCC[C@H]1C(=O)N1CCC[C@H]1C(=O)N[C@@H](CCCCN)C(=O)N[C@@H](Cc1ccc(O)cc1)C(=O)N[C@H]1CSCc2cccc(c2)CSC[C@@H](C(=O)O)NC(=O)[C@H](CC(C)C)NC(=O)[C@H](CC(C)C)NC(=O)[C@H](C)NC1=O` [compound 84] (H-IPPKYCALLC-OH; linker 6-10 via mXylylene; N-terminus and C-terminus assumed): the Ki in assay [3] (Table 4, calpain inhibitors) was 28.9 ± 9.1 µM; in assay [1], 12.5 ± 1.1 µM. SECFRQCMNGF [SEQ ID NO:2]: the “cathepsin L inhibitory activity, in words” value in assay [1] was “low activity”. On to `CC[C@H](C)[C@H](N)C(=O)N1CCC[C@H]1C(=O)N1CCC[C@H]1C(=O)N[C@@H](CCCCN)C(=O)N[C@@H](C)C(=O)N[C@H]1CSCc2cccc(c2)CSC[C@@H](C(=O)O)NC(=O)[C@H](CC(C)C)NC(=O)[C@H](CC(C)C)NC(=O)[C@H](CCC(=O)O)NC1=O` [compound 81] (H-IPPKACELLC-OH; linker 6-10 via mXylylene; N-terminus and C-terminus assumed), for which the Ki in assay [3] (Table 4, calpain inhibitors) was > 100 µM. `CSCC[C@@H]1NC(=O)[C@H](CC(C)C)NC(=O)[C@H](CO)NC(=O)[C@@H](NC(=O)[C@@H](NC(=O)[C@H](Cc2c[nH]c3ccccc23)NC(=O)[C@H](CCC(=O)O)NC(=O)[C@H](Cc2c[nH]c3ccccc23)NC(=O)[C@@H](N)Cc2c[nH]c3ccccc23)C(C)C)CSCc2cccc(c2)CSC[C@@H](C(=O)N[C@@H](CO)C(=O)O)NC1=O` [compound 25] (H-WWEWVCSLMCS-OH; linker 6-10 via mXylylene; N-terminus and C-terminus assumed) yielded a Ki in assay [3] (setting [4]) of 85.5 ± 1.3 µM. `CC(C)C[C@@H]1NC(=O)[C@H](CC(C)C)NC(=O)[C@H](CCC(=O)O)NC(=O)[C@@H](NC(=O)[C@H](Cc2ccc(O)cc2)NC(=O)[C@H](CCCCN)NC(=O)[C@@H]2CCCN2C(=O)[C@@H]2CCCN2C(=O)[C@@H](N)CCC(N)=O)CSCc2cccc(c2)CSC[C@@H](C(=O)O)NC1=O` [compound 76] (H-QPPKYCELLC-OH; linker 6-10 via mXylylene; N-terminus and C-terminus assumed) displayed a Ki in assay [3] (Table 4, calpain inhibitors) of 35 ± 10.4 µM.

`CC[C@H](C)[C@H](N)C(=O)N1CCC[C@H]1C(=O)N1CCC[C@H]1C(=O)N[C@@H](CCCNC(=N)N)C(=O)N[C@@H](Cc1ccc(O)cc1)C(=O)N[C@H]1CSCc2cccc(c2)CSC[C@@H](C(=O)O)NC(=O)[C@H](CC(C)C)NC(=O)[C@H](CC(C)C)NC(=O)[C@H](CCC(=O)O)NC1=O` [compound 80] (H-IPPRYCELLC-OH; linker 6-10 via mXylylene; N-terminus and C-terminus assumed): the Ki in assay [2] (Table 4, calpain inhibitors) was > 100 µM; in assay [3] (Table 4, calpain inhibitors), 5.3 ± 2 µM. In assay [3] (setting [4]), `CSCC[C@@H]1NC(=O)[C@H](CC(C)C)NC(=O)[C@H](CO)NC(=O)[C@@H](NC(=O)[C@@H](NC(=O)[C@H](Cc2c[nH]c3ccccc23)NC(=O)[C@H](CCC(=O)O)NC(=O)[C@H](Cc2c[nH]c3ccccc23)NC(=O)[C@@H](N)[C@@H](C)O)C(C)C)CSCc2cccc(c2)CSC[C@@H](C(=O)N[C@@H](CO)C(=O)O)NC1=O` [compound 23] (H-TWEWVCSLMCS-OH; linker 6-10 via mXylylene; N-terminus and C-terminus assumed) had an inhibition constant (Ki) of 88.4 ± 1.13 µM. As to `CSCC[C@@H]1NC(=O)[C@H](CC(C)C)NC(=O)[C@H](CO)NC(=O)[C@@H](NC(=O)[C@@H](NC(=O)[C@H](CCC(=O)O)NC(=O)[C@H](CCC(=O)O)NC(=O)[C@H](CO)NC(=O)[C@@H](N)Cc2c[nH]c3ccccc23)C(C)C)CSCc2cccc(c2)CSC[C@@H](C(=O)N[C@@H](CO)C(=O)O)NC1=O` [compound 17] (H-WSEEVCSLMCS-OH; linker 6-10 via mXylylene; N-terminus and C-terminus assumed), the Ki was > 100 µM in assay [2] (setting [4]) and 108 ± 1.28 µM in assay [3] (setting [4]). Turning to `CSCC[C@H](NC(=O)[C@H](CCCCN)NC(=O)[C@H](CCC(N)=O)NC(=O)[C@@H](NC(=O)[C@@H](NC(=O)[C@H](CCC(=O)O)NC(=O)[C@H](CCC(=O)O)NC(=O)[C@@H](N)CO)C(C)C)C(C)C)C(=O)N[C@H](C(=O)NCC(=O)N[C@@H](CC(C)C)C(=O)O)[C@@H](C)O` [SEQ ID NO:32, SEEVVQKMTGL, reference compound] (H-SEEVVQKMTGL-OH), in assay [2], the “effect on cathepsin K (inhibition or activation), in words” value is reported as “did not inhibit”.

The molecule `CC[C@H](C)[C@H](N)C(=O)N1CCC[C@H]1C(=O)N1CCC[C@H]1C(=O)N[C@@H](CCCCN)C(=O)N[C@@H](Cc1ccc(O)cc1)C(=O)N[C@H]1CSCc2cccc(c2)CSC[C@@H](C(=O)O)NC(=O)[C@H](CC(C)C)NC(=O)[C@H](C)NC(=O)[C@H](CCC(=O)O)NC1=O` [compound 86] (H-IPPKYCEALC-OH; linker 6-10 via mXylylene; N-terminus and C-terminus assumed) came in with a Ki in assay [3] (Table 4, calpain inhibitors) of 30.9 ± 9.2 µM.

On to `CC[C@H](C)[C@H](N)C(=O)N1CCC[C@H]1C(=O)N1CCC[C@H]1C(=O)N[C@@H](CCCCN)C(=O)N[C@@H](Cc1ccc(O)cc1)C(=O)N[C@H]1CSCc2cccc(c2)CSC[C@@H](C(=O)O)NC(=O)[C@H](CC(C)C)NC(=O)[C@H](CCC(N)=O)NC(=O)[C@H](CCC(=O)O)NC1=O` [compound 85] (H-IPPKYCEQLC-OH; linker 6-10 via mXylylene; N-terminus and C-terminus assumed), for which the Ki is > 100 µM in assay [2] (Table 4, calpain inhibitors) and 11 ± 3.6 µM in assay [3] (Table 4, calpain inhibitors).

On to `CC(C)C[C@@H]1NC(=O)[C@H](CC(C)C)NC(=O)[C@H](CCC(=O)O)NC(=O)[C@@H](NC(=O)[C@H](Cc2ccc(O)cc2)NC(=O)[C@H](CCCCN)NC(=O)[C@@H]2CCCN2C(=O)[C@@H]2CCCN2C(=O)[C@H](C)N)CSCc2cccc(c2)CSC[C@@H](C(=O)O)NC1=O` [compound 72] (H-APPKYCELLC-OH; linker 6-10 via mXylylene; N-terminus and C-terminus assumed), for which the Ki in assay [3] (Table 4, calpain inhibitors) came to 65.6 ± 20.5 µM; in assay [1], 12.5 ± 1.2 µM. Turning to `CC[C@H](C)[C@H](N)C(=O)N1CCC[C@H]1C(=O)N1CCC[C@H]1C(=O)N[C@@H](CCCCN)C(=O)N[C@@H](Cc1ccc(O)cc1)C(=O)N[C@H]1CSCc2cccc(c2)CSC[C@@H](C(=O)O)NC(=O)[C@H](CC(C)C)NC(=O)[C@H](CC(C)C)NC(=O)[C@H](CCC(=O)O)NC1=O` [compound 65], the Ki in assay [2] (Table 4, calpain inhibitors) is > 100 µM; in assay [3] (Table 4, calpain inhibitors) it was 10.2 ± 2.9 µM. Taken in the same sequence, the figures for `CC[C@H](C)[C@H](NC(=O)[C@@H](NC(=O)[C@@H](NC(=O)[C@@H](N)CCC(=O)O)C(C)C)[C@@H](C)O)C(=O)N1CCC[C@H]1C(=O)N1CCC[C@H]1C(=O)N[C@@H](CCCCN)C(=O)N[C@@H](Cc1ccc(O)cc1)C(=O)N[C@H]1CSCc2cccc(c2)CSC[C@@H](C(=O)O)NC(=O)[C@H](CC(C)C)NC(=O)[C@H](CC(C)C)NC(=O)[C@H](CCC(=O)O)NC1=O` [compound 69] (H-EVTIPPKYCELLC-OH; linker 9-13 via mXylylene; N-terminus and C-terminus assumed) were > 100 µM and 5.3 ± 1.9 µM. For the molecule `CC(C)C[C@@H]1NC(=O)[C@H](CC(C)C)NC(=O)[C@H](CCC(=O)O)NC(=O)[C@@H](NC(=O)[C@H](Cc2ccc(O)cc2)NC(=O)[C@H](CCCCN)NC(=O)[C@@H]2CCCN2C(=O)[C@@H]2CCCN2C(=O)[C@@H](N)CC(C)C)CSCc2cccc(c2)CSC[C@@H](C(=O)O)NC1=O` [compound 74] (H-LPPKYCELLC-OH; linker 6-10 via mXylylene; N-terminus and C-terminus assumed), the Ki is > 100 µM in assay [2] (Table 4, calpain inhibitors) and 11 ± 3.6 µM in assay [3] (Table 4, calpain inhibitors).
